How the values were obtained:
Format in all cases: cell-based
[1] = target: T1, human muscarinic M1 receptor (Homo sapiens, UniProt P11229); test: Alphascreen Surefire phospho-ERK1/2 functional assay, M1; details: for EC50 / % Emax cf. ACh (M1) / pEC50 M1: CHO cells stably expressing human M1; for EC50 / pEC50 M1: agonist 5 min, 37° C.; for EC50: read-out: pEC50 M1 (converted); for % Emax cf. ACh (M1) / Emax: relative to ACh; for Emax: CHO, read-out: % Emax cf. ACh (M1), CHO cells stably expressing human M1
T1 sequence (P11229 1-460): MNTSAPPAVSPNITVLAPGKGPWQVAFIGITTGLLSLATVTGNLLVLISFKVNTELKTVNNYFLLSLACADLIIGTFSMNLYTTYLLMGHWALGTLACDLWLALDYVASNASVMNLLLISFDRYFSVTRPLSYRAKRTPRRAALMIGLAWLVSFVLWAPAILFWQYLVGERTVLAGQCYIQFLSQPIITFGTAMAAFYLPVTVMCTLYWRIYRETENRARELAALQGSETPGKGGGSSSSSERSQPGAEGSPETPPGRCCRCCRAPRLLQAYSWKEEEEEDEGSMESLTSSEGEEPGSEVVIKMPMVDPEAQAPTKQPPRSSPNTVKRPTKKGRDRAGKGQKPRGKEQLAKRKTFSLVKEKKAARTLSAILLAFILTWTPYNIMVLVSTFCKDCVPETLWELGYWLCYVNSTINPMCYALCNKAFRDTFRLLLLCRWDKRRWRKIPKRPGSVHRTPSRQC
Description: (§1) ERK1/2 phosphorylation is a downstream consequence of both Gq/11 and Gi/o protein coupled receptor activation, making it highly suitable for the assessment of M1, M3 (Gq/11 coupled) and M2, M4 receptors (Gi/o coupled), rather than using different assay formats for different receptor subtypes. CHO cells stably expressing the human muscarinic M1, M2, M3 or M4 receptor were plated (25K/well) onto 96-well tissue culture plates in MEM-alpha+10% dialysed FBS. Once adhered, cells were serum-starved overnight. Agonist stimulation was performed by the addition of 5 μL agonist to the cells for 5 min (37° C.). Media was removed and 50 μL of lysis buffer added. After 15 min, a 4 μL sample was transferred to 384-well plate and 7 μL of detection mixture added.

[2] = target: T2, human muscarinic M3 receptor (Homo sapiens, UniProt P20309); test: Alphascreen Surefire phospho-ERK1/2 functional assay, M3; details: for EC50 / pEC50 M3 / % Emax cf. ACh (M3): CHO cells stably expressing human M3; for EC50 / pEC50 M3: agonist 5 min, 37° C.; for EC50: read-out: pEC50 M3 (converted); for Emax: CHO, read-out: % Emax cf. ACh (M3); for % Emax cf. ACh (M3): relative to ACh
T2 construct: expressed in transfected cells
Description: as §1

[3] = target: T3, human muscarinic M2 receptor (Homo sapiens, UniProt P08172); test: Alphascreen Surefire phospho-ERK1/2 functional assay, M2; details: for EC50 / pEC50 M2 / % Emax cf. ACh (M2): CHO cells stably expressing human M2; for EC50 / pEC50 M2: agonist 5 min, 37° C.; for EC50: read-out: pEC50 M2 (converted); for Emax: CHO, read-out: % Emax cf. ACh (M2); for % Emax cf. ACh (M2): relative to ACh
T3 sequence (P08172 1-466): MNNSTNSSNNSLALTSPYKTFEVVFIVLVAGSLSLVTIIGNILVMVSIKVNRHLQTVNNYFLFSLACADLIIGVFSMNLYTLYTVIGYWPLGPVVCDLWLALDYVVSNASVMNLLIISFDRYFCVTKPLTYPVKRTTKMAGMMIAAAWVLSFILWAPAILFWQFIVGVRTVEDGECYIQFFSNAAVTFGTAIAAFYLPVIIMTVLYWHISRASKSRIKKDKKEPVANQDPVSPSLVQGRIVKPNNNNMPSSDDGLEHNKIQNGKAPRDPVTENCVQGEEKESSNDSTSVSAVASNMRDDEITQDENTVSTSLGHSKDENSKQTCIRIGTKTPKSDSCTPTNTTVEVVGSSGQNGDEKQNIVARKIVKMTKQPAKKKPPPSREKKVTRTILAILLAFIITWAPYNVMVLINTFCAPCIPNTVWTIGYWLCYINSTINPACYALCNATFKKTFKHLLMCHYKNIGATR
Description: as §1

[4] = target: T4, human muscarinic M4 receptor (Homo sapiens, UniProt P08173); test: Alphascreen Surefire phospho-ERK1/2 functional assay, M4; details: for EC50 / % Emax cf. ACh (M4) / pEC50 M4: CHO cells stably expressing human M4; for EC50 / pEC50 M4: agonist 5 min, 37° C.; for EC50: read-out: pEC50 M4 (converted); for % Emax cf. ACh (M4) / Emax: relative to ACh; for Emax: CHO, read-out: % Emax cf. ACh (M4), CHO cells stably expressing human M4
T4 construct: expressed in transfected cells
T4 sequence (P08173 1-479): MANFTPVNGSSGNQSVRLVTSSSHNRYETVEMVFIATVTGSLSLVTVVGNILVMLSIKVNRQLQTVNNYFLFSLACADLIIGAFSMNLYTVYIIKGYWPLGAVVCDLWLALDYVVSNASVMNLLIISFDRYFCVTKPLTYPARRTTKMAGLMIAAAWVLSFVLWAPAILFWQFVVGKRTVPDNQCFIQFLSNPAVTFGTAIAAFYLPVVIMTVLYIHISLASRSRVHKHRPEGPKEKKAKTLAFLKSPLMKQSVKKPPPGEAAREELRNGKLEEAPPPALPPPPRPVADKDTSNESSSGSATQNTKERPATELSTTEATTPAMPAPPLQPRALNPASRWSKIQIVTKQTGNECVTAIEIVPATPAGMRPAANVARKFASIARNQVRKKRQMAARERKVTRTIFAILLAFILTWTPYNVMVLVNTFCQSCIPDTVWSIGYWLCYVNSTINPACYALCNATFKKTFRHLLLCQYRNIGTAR
Description: as §1

T2 sequence (P20309 whole entry): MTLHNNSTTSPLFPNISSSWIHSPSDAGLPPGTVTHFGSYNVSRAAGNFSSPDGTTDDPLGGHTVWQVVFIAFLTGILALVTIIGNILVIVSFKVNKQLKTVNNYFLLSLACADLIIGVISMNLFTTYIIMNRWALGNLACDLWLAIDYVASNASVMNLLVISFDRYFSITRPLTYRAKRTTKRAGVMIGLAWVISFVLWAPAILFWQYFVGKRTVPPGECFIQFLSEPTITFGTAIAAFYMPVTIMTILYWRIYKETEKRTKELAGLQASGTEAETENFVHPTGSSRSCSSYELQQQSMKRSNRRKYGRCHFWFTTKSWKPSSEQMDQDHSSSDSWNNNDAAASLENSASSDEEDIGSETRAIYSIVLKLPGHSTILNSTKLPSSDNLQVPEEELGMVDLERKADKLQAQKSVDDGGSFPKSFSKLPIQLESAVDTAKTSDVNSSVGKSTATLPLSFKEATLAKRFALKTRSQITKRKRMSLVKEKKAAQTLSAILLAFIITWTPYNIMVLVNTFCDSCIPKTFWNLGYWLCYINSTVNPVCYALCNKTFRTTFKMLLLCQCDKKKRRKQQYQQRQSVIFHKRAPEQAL

EC50 [1] [nM]	% Emax cf. ACh (M1) [1] [%]	EC50 [2] [nM]	Emax [2] [%]	EC50 [3] [nM]	Emax [3] [%]	EC50 [4] [nM]	% Emax cf. ACh (M4) [4] [%]	Emax [1] [%]	Emax [4] [%]	pEC50 M1 [1]	pEC50 M3 [2]	% Emax cf. ACh (M3) [2] [%]	pEC50 M2 [3]	% Emax cf. ACh (M2) [3] [%]	pEC50 M4 [4]	SMILES
9330		> 20000	6	> 20000	12	316		115	73							CCOC(=O)[C@H]1[C@@H]2CN(C3CC4(C3)CN(C(=O)OCC)C4)C[C@@H]21 [Example 1-1, ethyl 6-[(1R,5S,6r)-6-(ethoxycarbonyl)-3-azabicyclo[3.1.0]hex-3-yl]-2-azaspiro[3.3]heptane-2-carboxylate]
	104						64			6.51	< 4.70	68	< 4.70	24	5.95	CCOC(=O)N1C2COCC1CC(N1CC3C(C1)C3C(=O)N1CCOCC1)C2 (single isomer, unassigned; isomer 1) [10-13 Isomer 1]
	101						59			6.43	< 4.70	22	< 4.70	24	4.99	CCOC(=O)N1C2COCC1CC(N1CC3C(C1)C3C(=O)N1CCOCC1)C2 (single isomer, unassigned; isomer 2) [10-13 Isomer 2]

More lines, now with the values behind:

SMILES	EC50 [1] [nM]	% Emax cf. ACh (M1) [1] [%]	EC50 [2] [nM]	Emax [2] [%]	EC50 [3] [nM]	Emax [3] [%]	EC50 [4] [nM]	% Emax cf. ACh (M4) [4] [%]	Emax [1] [%]	Emax [4] [%]	pEC50 M1 [1]	pEC50 M3 [2]	% Emax cf. ACh (M3) [2] [%]	pEC50 M2 [3]	% Emax cf. ACh (M2) [3] [%]	pEC50 M4 [4]
CCOC(=O)N1CCC2(CC(N3CC4C(C3)C4OC(C)c3ccccc3)C2)C1 (single isomer, unassigned) [2-28 Isomer 2]	64.6	104	> 20000	5	> 20000	7	53.7	51								
CCOC(=O)N1CCC2(CC(N3CC4C(C3)C4C(=O)N3CCC34CC4)C2)C1 (single isomer, unassigned) [2-19 Isomer 2]	13.2		> 20000	35	> 20000	16	37.2		93	95						
CCOC(=O)N1C2COCC1CC(N1CC3C(C1)C3C(=O)N(CC)CC)C2 (single isomer, unassigned; isomer 2) [10-2 Isomer 2]		113						62			7.15	< 4.70	10	< 4.70	25	6.04
CCOC(=O)N1CCC2(CC(N3C[C@@H]4[C@H](C3)[C@H]4c3ccnn3C)C2)C1 (single isomer, unassigned) [2-29 Isomer 2]	646		> 20000	2	> 20000	36	87.1		43	83						
CCOC(=O)N1CCC2(CC(N3CC4C(C3)C4C(CC)=NOC)C2)C1 (single isomer, unassigned) [2-25 Isomer 4]	324	65	> 20000	4	> 20000	24	151	48								
CCOC(=O)C1C2CN(C3CC4(CCN(C(=O)OCC)C4)C3)CC21 (mixture of isomers) [2-1 Mixture of isomers]	> 20000		> 20000	0	> 20000	7	77.6		22	86						
CCOC(=O)N1C2CCCC1CC(N1CC3C(C1)C3C(=O)N(C)CC)C2 (single isomer, unassigned; isomer 1) [9-1 Isomer 1]		93						57			7.04	< 4.70	21	< 4.70	19	6.06

— patent US10329278B2, “Pharmaceutical compounds” (Heptares Therapeutics Limited, priority 2017, dated 2019)
